Measurements as given in patent US7250429B2, “Aminomethyl-substituted thiazolobenzimidazole compounds” (Astellas Pharma Inc., priority 2002, dated 2007).
Structures can show the parent of a compound that is named as a salt.

Assays:
mGluR 1 = molecular target: T1, mGluR 1 (Rattus norvegicus, UniProt P23385); assay: mGluR 1 binding test with tritium-labeled ligand on rat cerebellum P2 membrane fraction; conditions: about 20 nM [3H]-6-amino-N-cyclohexyl-N,3-dimethylthiazolo[3,2-a]benzimidazole-2-carboxamide
T1 construct: Each rat (Wistar, male, 9 to 12 weeks of age) was decapitated to excise the cerebellum; from tissue; host or cells: rat (Wistar) cerebellum, P2 membrane fraction
T1 sequence (P23385 19-1199): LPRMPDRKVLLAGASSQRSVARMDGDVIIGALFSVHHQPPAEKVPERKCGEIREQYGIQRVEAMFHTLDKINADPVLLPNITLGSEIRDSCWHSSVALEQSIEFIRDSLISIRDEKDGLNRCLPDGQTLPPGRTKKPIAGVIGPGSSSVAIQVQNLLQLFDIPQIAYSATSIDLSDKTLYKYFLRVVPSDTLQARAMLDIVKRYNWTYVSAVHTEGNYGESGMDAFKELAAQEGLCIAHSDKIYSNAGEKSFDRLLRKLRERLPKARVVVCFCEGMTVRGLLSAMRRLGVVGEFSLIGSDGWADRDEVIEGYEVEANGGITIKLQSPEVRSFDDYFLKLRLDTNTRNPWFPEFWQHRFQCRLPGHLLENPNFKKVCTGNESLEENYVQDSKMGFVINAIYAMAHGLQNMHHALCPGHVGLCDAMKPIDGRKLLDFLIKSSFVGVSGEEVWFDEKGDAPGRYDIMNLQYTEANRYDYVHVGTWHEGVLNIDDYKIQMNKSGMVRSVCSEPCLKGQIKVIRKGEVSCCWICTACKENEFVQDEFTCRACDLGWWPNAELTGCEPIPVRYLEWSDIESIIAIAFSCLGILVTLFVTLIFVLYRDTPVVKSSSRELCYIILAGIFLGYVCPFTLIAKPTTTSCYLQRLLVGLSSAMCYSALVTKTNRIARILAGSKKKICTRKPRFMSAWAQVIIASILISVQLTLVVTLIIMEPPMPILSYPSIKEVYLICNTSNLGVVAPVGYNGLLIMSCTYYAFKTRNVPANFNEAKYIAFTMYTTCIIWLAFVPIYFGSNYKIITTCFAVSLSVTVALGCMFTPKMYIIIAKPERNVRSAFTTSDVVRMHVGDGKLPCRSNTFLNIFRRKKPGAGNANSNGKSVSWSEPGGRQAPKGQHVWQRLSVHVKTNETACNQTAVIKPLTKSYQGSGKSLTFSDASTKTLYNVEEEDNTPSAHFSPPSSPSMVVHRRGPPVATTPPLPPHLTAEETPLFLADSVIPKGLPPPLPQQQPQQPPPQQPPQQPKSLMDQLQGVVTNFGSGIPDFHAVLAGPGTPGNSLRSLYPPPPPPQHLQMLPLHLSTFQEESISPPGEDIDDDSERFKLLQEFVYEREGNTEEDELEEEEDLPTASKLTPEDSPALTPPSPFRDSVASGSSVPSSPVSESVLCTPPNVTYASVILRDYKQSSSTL
Procedure: (Test Methods) 1. The mGluR 1 Binding Activity
Effect of the compounds of the invention upon mGluR 1 was verified in accordance with the method described in the Patent Reference 3.
(Preparation of Rat Cerebellum P2 Membrane Fraction)
Each rat (Wistar, male, 9 to 12 weeks of age) was decapitated to excise the cerebellum. After weight measurement, this was homogenized in 7 to 10 volumes of 0.32 M sucrose solution. After 15 minutes of centrifugation at 900×g, the supernatant was preserved in a container (in ice). The precipitate was again homogenized in 0.32 M sucrose solution of the same volume of the first time and centrifuged at 900×g for 15 minutes. The supernatant obtained this time was combined with the previously obtained supernatant and centrifuged at 15,000×g for 20 minutes. The precipitate was homogenized in 5 mM Tris-HCl, pH 7.4, and centrifuged at 15,000×g for 15 minutes. This step was repeated again. The precipitate was homogenized in 50 mM Tris-HCl, pH 7.4, and centrifuged at 15,000×g for 15 minutes. The precipitate was homogenized in an appropriate amount of 50 mM Tris-HCl, pH 7.4, subdivided into small portions and then preserved at −80° C.
As the assay buffer, 50 mM Tris-HCl, 2.5 mM CaCl2, pH 7.4, was used. [^3H]-(6-Amino-N-cyclohexyl-N,3-dimethylthiazolo[3,2-a]benzimidazole-2-carboxamide) (specific activity; 81 Ci/mmol; Amersham), a test compound and about 0.1 mg of the rat cerebellum P2 membrane fraction were suspended to a total volume of 100 μl in a 96 well microplate and then incubated at room temperature (about 25° C.) for 45 minutes. Completion of the incubation was carried out by a filtration method using Whatman GF/B filter. Quantity of the radioactivity was measured using a liquid scintillation counter. About 20 nM of [^3H]-6-amino-N-cyclohexyl-N,3-dimethylthiazolo[3,2-a]benzimidazole-2-carboxamide was used in the competitive test, and the specific binding was defined as a portion of the total binding, which was replaced by 10 μM of 6-{[(2-methoxyethyl)amino]methyl}-N-neopentylthiazolo[3,2-a]benzimidazole-2-carboxamide (Patent Reference 3, the compound described in Example 75). Evaluation of the test compound was carried out by calculating the ratio of binding inhibition upon the specific binding.
Determination of protein was carried out using BIO-RAD DC protein assay (BIO-RAD). Bovine serum albumin was used as the standard substance.

STZ-loaded mice = assay: Streptozotocin (STZ)-induced diabetes model, tail pinch test; type: in vivo, ICR mice; conditions: at 10 mg/kg
Procedure: • Thomsen C., Mulvihill E. R., Haldeman B., Pickering D. S., Hampson D. R. and Suzdak P. D., A pharmacological characterization of the mGluR 1 alpha subtype of the metabotropic glutamate receptor expressed in a cloned baby hamster kidney cell line., Brain Res., Aug. 13, 1993, 619(1-2), 22-8 2. Inhibitory Effect Upon Neuropathic Pain 1) Streptozotocin (to be Referred to as STZ Hereinafter)—Induced Diabetes Model
The test was carried out by modifying a part of a report (Pharmacol. Biochem. Behav., 39, 541-544, 1991). At a dose of 200 mg/kg, STZ was intraperitoneally administered to each of ICR mice of 4 weeks of age. A preliminary test of a tail pinch test was carried out in the afternoon of the day 2 weeks after the administration, and only animals showing a reaction latency of 3 seconds or less were submitted to the next day's test. Each compound was loaded by 10 mg/kg of oral administration, and the tail pinch test was carried out after 30 minutes of the administration to calculate a difference from the value of latency measured in the preliminary test.
In this connection, normal mice unloaded with STZ show a reaction latency of 6 to 7 seconds in average by this test. STZ-loaded mice having a reaction latency of 3 seconds or less in which distinct reduction in the pain threshold was observed were used in the test of this time. […]

[1] = test system: Salmonella typhimurium TA 98 and TA 100; assay: Reverse mutation test using a bacterium (genetic toxicity); type: cell-based; conditions: pre-incubation method, presence and absence of metabolic activation system (S9Mix)
Procedure: Gene mutation inducing ability of the compounds of the invention was verified by a reverse mutation test which uses a bacterium.
The test was carried out in accordance with the genetic toxicity test guideline of drugs (Iyakushin No. 1604, Nov. 1, 1999) by a pre-incubation method in the presence and absence of a metabolic activation system. However, Salmonella typhimurium TA 98 and TA 100 alone were used as the test strains.
(Reverse Mutation Test Using a Bacterium)
A 0.5 ml portion of 0.1 M sodium phosphate buffer (pH 7.4), 0.1 ml of an overnight-cultured test strain suspension and 0.1 ml of a solution of a substance to be tested were put into a test tube and shaken (60 reciprocation/min) at 37° C. for 20 minutes, and then 2 ml of soft agar kept at about 45° C. was added thereto and the mixture was spread on a minimal glucose agar plate medium (plate) and cultured at 37° C. for about 48 hours. In the case of the metabolic activation test, the same procedure was carried out by adding the same volume of S9Mix instead of the 0.1 M sodium phosphate buffer. […]
The number of colonies formed on the plate after 48 hours of culturing was counted. […]

[2] = test system: L5/L6 spinal nerves-ligated rat; assay: L5/L6 spinal nerves-ligated rat, von Frey hair (VFH) test; type: in vivo, SD rats; conditions: 30 mg/kg oral administration; VFH test 30 minutes after administration
Procedure: 2) L5/L6 Spinal Nerves-Ligated Rat
The test was carried out by modifying a part of a report (PAIN, 50, 355-363, 1992). Using SD rats, left side hip nerves (L5 and L6) were ligated with a silk thread under pentobarbital anesthesia. The following test was carried out during a period of from on the 7th day to the 14th day after the operation.
Each compound was orally administered, and the von Frey hair (VFH) test was carried out 30 minutes thereafter to calculate the pain threshold value against mechanical nocuous stimulus. The measurement was carried out on the left and right hind legs.
The significant difference test was carried out using the Dunnett method on respective left and right legs between the control group and compound-administered group.

Compound | IC50 (mGluR 1) [nM] | other results
CN(CC(C)(C)C)C(=O)c1cn2c(nc3ccc(CNC4COC4)cc32)s1 [Example 6, N-Methyl-N-neopentyl-6-[(oxetan-3-ylamino)methyl]thiazolo[3,2-a]benzimidazole-2-carboxamide 1.5 Fumarate] | 2 | 
CN(CC(C)(C)C)C(=O)c1cn2c(nc3ccc(CNCC4(C)COC4)cc32)s1 [Example 7, N-Methyl-6-({[(3-methyloxetan-3-yl)methyl]amino}methyl)-N-neopentylthiazolo[3,2-a]benzimidazole-2-carboxamide] | 9 | 
CN(CC(C)(C)C)C(=O)c1cn2c(nc3ccc(CNC[C@@H]4CCCO4)cc32)s1 [Example 11, N-Methyl-N-neopentyl-6-({[((S)-tetrahydro-2-furfuryl)methyl]amino}methyl)thiazolo[3,2-a]benzimidazole-2-carboxamide Dihydrochloride] | 3 | 
CN(CC(C)(C)C)C(=O)c1cn2c(nc3ccc(CNCC4OCCO4)cc32)s1 [Example 12, 6-{[(1,3-Dioxolan-2-ylmethyl)amino]methyl}-N-methyl-N-neopentylthiazolo[3,2-a]benzimidazole-2-carboxamide dihydrochloride] |  | oral activity (STZ-loaded mice): effective; gene mutation inducing ability [1]: negative
CC(C)(C)CNC(=O)c1cn2c(nc3ccc(CN[C@@H]4CCOC4)cc32)s1 [Example 23, (R)-N-Neopentyl-6-{[(tetrahydro-3-furyl)amino]methyl}thiazolo[3,2-a]benzimidazole-2-carboxamide dihydrochloride] | 30 | 
CC(C)(C)CNC(=O)c1cn2c(nc3ccc(CNC[C@H]4CCCO4)cc32)s1 [Example 24, (R)-N-Neopentyl-6-({[(tetrahydro-2-furyl)methyl]amino}methyl)thiazolo[3,2-a]benzimidazole-2-carboxamide dihydrochloride] | 11 | 

Continued, in another order:

IC50 (mGluR 1) [nM] | Compound | other results
26 | CN(CC(C)(C)C)C(=O)c1cn2c(nc3ccc(CNC4CCOCC4)cc32)s1 [Example 15, N-Methyl-N-neopentyl-6-{[(tetrahydro-2H-pyran-4-yl)amino]methyl}thiazolo[3,2-a]benzimidazole-2-carboxamide dihydrochloride] | efficacy upon the threshold value reduction in the operated side [2]: showed their efficacy
6 | CN(CC(C)(C)C)C(=O)c1cn2c(nc3ccc(CNCC4CCOCC4)cc32)s1 [Example 17, N-Methyl-N-neopentyl-6-({[(tetrahydro-2H-pyran-4-yl)methyl]amino}methyl)thiazolo[3,2-a]benzimidazole-2-carboxamide dihydrochloride] | efficacy upon the threshold value reduction in the operated side [2]: showed their efficacy
8 | CC(C)(C)CNC(=O)c1cn2c(nc3ccc(CNCC4OCCO4)cc32)s1 [Example 26, 6-{[(1,3-Dioxolan-2-ylmethyl)amino]methyl}-N-neopentylthiazolo[3,2-a]benzimidazole-2-carboxamide dihydrochloride] | 
48 | CC(C)(C)CNC(=O)c1cn2c(nc3ccc(CNCC4CCOCC4)cc32)s1 [Example 28, N-Neopentyl-6-({[(tetrahydro-2H-pyran-4-yl)methyl]amino}methyl)thiazolo[3,2-a]benzimidazole-2-carboxamide dihydrochloride] | efficacy upon the threshold value reduction in the operated side [2]: showed their efficacy
43 | CN(CC1OCCO1)C(=O)c1cn2c(nc3ccc(CNC4COC4)cc32)s1 [Example 31, N-(1,3-Dioxolan-2-ylmethyl)-N-methyl-6-[(oxetan-3-ylamino)methyl]thiazolo[3,2-a]benzimidazole-2-carboxamide] | 
37 | CN(CC1OCCO1)C(=O)c1cn2c(nc3ccc(CN[C@@H]4CCOC4)cc32)s1 [Example 34, N-(1,3-Dioxolan-2-ylmethyl)-N-methyl-6-{[(R)-(tetrahydro-3-furyl)amino]methyl}thiazolo[3,2-a]benzimidazole-2-carboxamide dihydrochloride] | 
12 | CN(CC1OCCO1)C(=O)c1cn2c(nc3ccc(CNC[C@H]4CCCO4)cc32)s1 [Example 35, N-(1,3-Dioxolan-2-ylmethyl)-N-methyl-6-({[((R)-tetrahydro-2-furyl)methyl]amino}methyl)thiazolo[3,2-a]benzimidazole-2-carboxamide dihydrochloride] | 
8 | CN(CC1OCCO1)C(=O)c1cn2c(nc3ccc(CNCC4OCCO4)cc32)s1 [Example 37, N-(1,3-Dioxolan-2-ylmethyl)-6-{[(1,3-dioxolan-2-ylmethyl)amino]methyl}-N-methylthiazolo[3,2-a]benzimidazole-2-carboxamide dihydrochloride] | 
26 | CN(CC1OCCO1)C(=O)c1cn2c(nc3ccc(CNCC4CCOCC4)cc32)s1 [Example 39, N-(1,3-Dioxolan-2-ylmethyl)-N-methyl-6-({[(tetrahydro-2H-pyran-4-yl)methyl]amino}methyl)thiazolo[3,2-a]benzimidazole-2-carboxamide dihydrochloride] | 
